Results: US9486461B2, “Methods and compositions for inducing apoptosis by stimulating ER stress” (UNIVERSITY OF SOUTHERN CALIFORNIA, priority 2007, dated 2016)

Tests used:
U251 glioblastoma cells [1] = assay: Cell death ELISA, U251; assay type: cell-based, human; conditions: U251, 48 hours, concentrations of up to 100 μmol/L
Experimental: (§1) U251 glioblastoma cells were treated with different drugs, and various parameters of cell growth and cell death were comparatively analyzed. As controls, cells remained either non-treated (Co) or were treated with the solvent DMSO alone. (FIG. 8A) Cells were treated with 30 or 50 μM DMC for 48 hours and the effects on cell growth/survival and on cell death were determined by various assays. […] Below the three panels, the expression levels of the ER stress indicators CHOP, GRP78, and caspase 4 at the end of the 48 hour drug treatment is shown, as determined by Western blot analysis with specific antibodies (actin served as a loading control. (FIG. 8B) Cells were treated with various concentrations of different drugs for 48 hours, as indicated, and cell death was measured with the cell death ELISA kit. (FIG. 8C) Cells were treated with DMC or various coxibs and traditional NSAIDs for 48 hours, as indicated, and cell growth and survival was determined with the conventional MTT assay (control, non-treated cells were set at 100%). MTT assays were performed in 96-well plates with the use of 3.0-8.0×10^3 cells per well as described in detail elsewhere (34). In parallel, the expression levels of CHOP and GRP78 protein were determined by Western blot analysis.
Apoptosis in cell cultures in vitro was determined by using the Cell Death Detection ELISA kit (Roche Diagnostics, Indianapolis, Ind.) according to the manufacturer's instructions. This immunoassay specifically detects the histone region (H1, H2A, H2B, H3, and H4) of mononucleosomes and oligonucleosomes that are released during apoptosis. Ninety-six-well plates were seeded with 1,000 cells per well and read at 405 nm in a Microplate Autoreader (Model EL 311 SX; Bio-Tek Instruments, Inc., Winooski, Vt.).

[2] = system: CHOP, GRP78, caspase 4 in U251 glioblastoma cells; assay: Western blot of ER stress indicators in U251 cells; assay type: cell-based, human; conditions: for CHOP expression, time kinetics: U251, 50 μmol/L, 4 h up to 24 h
Experimental: U251 glioblastoma cells were cultured in the presence of 1 μM thapsigargin (Tg) or 60 μM DMC for various times, as indicated. Total cell lysates were prepared and analyzed by Western blot with specific antibodies to the ER stress proteins GRP78, CHOP, and caspase 4 (Casp 4). Actin was used as a loading control.
Shown are (A) time kinetics at 50 μM of each drug, and (B) concentration dependence after 15 hours of incubation.
Shown are (FIG. 7A) time kinetics at 50 μM of each drug, and (FIG. 7B), concentration dependence after 15 hours of incubation.
U251 glioblastoma cells were cultured for 24 hours in the presence of increasing concentrations of (A) bortezomib (BZM) or (B) DMC. Total cell lysates were analyzed by Western blot with specific antibodies to ubiquitin, GRP78, CHOP, and caspase 4. Actin was used as a loading control.
Total cell lysates were prepared by lysis of cells with radioimmunoprecipitation assay buffer (28), and protein concentrations were determined using the bicinchoninic acid protein assay reagent (Pierce, Rockford, Ill.). For Western blot analysis, 50 Ag of each sample were processed as described (29). The primary antibodies were purchased from Cell Signaling Technologies (Beverly, Mass.), Cayman Chemical (Ann Arbor, Mich.), or Santa Cruz Biotechnology, Inc. (Santa Cruz, Calif.) and used according to the manufacturer's recommendations. The secondary antibodies were coupled to horseradish peroxidase and detected by chemiluminescence using the SuperSignal West substrate from Pierce. All immunoblots were repeated at least once to confirm the results.
Total cell lysates were prepared and analyzed by Western blot analysis as described earlier (19). Immunohistochemical analysis of protein expression in tumor tissues was performed with the use of the Vectastain avidin-biotin complex method kit (Vector Laboratories) as described previously (32). The primary antibodies were purchased from Cell Signaling Technology or Santa Cruz Biotechnology, Inc. and used according to the manufacturers' recommendations. All immunoblots and stainings were repeated at least once to confirm the results.

[3] = system: T98G glioblastoma cell line; assay: MTT assay, T98G; assay type: cell-based; conditions: Homo sapiens, 48 h, read-out: IC50 (50% inhibition of cell growth)
Experimental: For comparison purposes to the known anti-multiple myeloma effects of bortezomib, the RPMI/8226 multiple myeloma cell line was included in (A).
3-(4,5-Dimethylthiazol-2-yl)-2,5-diphenyltetrazolium bromide (MTT) assays were performed in 96-well plates with the use of 3.0×10^3 to 8.0×10^3 cells per well as described in detail elsewhere (19).

[4] = system: CHOP protein in U87 glioblastoma tumor tissue; assay: Immunohistochemical staining for CHOP in xenograft tumor tissue; assay type: in vivo, nude mice; conditions: for CHOP staining of tumor tissues: 30-180 mg/kg per day for 50 h, DMC and celecoxib already at lowest dosages
Description: In all cases, representative sections are shown.
Immunohistochemical analysis of protein expression in tumor tissues was done with the use of the Vectastain avidin-biotin complex method kit (Vector Laboratories, Burlingame, Calif.) according to the manufacturer's instructions. This procedure uses biotinylated secondary antibodies and a preformed avidin: biotinylated enzyme complex that has been termed the avidin-biotin complex method technique. As the primary antibody, we used anti-CHOP antibody (Santa Cruz Biotechnology) diluted 1:100 in 2% normal goat blocking serum.

U251 glioblastoma cells [5] = assay: Colony forming assay, U251; assay type: cell-based, human; conditions: U251, 30 and 50 μmol/L, 48 hours
Experimental: as §1, with “MTT assays were performed in 96-well plates with the use of 3.0-8.0×10^3 cells per well as described in detail elsewhere (34).” left out
Twenty-four hours after transfection with small interfering RNA (siRNA), the cells were seeded into six-well plates at 200 cells per well. […] Colonies were visualized by staining for 4 h with 1% methylene blue (in methanol) and then counted.

[6] = system: CHOP, GRP78, caspase 4 in U251 glioblastoma cells; assay: Western blot of ER stress indicators in U251 cells; assay type: cell-based, human; conditions: U251, 30 and 50 μmol/L, 48 hours

SMILES	induction of cell death/apoptosis (cell death ELISA) (U251 glioblastoma cells [1])	CHOP expression, time kinetics [2]	IC50 [3] [µM]	CHOP staining of tumor tissues ([4]; U87 xenograft)	survival in colony-forming assays (U251 glioblastoma cells [5])	increase in CHOP or GRP78 protein, concentration dependence ([2]; U251, 15 hours, concentrations up to 75 or 100 μmol/L)	expression of GRP78 and CHOP ([2]; U251, increasing concentrations, 24 hours)	time at which activation (cleavage) of caspase-4 was first noted ([2]; U251, 1 μM thapsigargin or 60 μM DMC) [h]	CHOP and GRP78 expression levels ([2]; U251, 1 μM thapsigargin or 60 μM DMC, prominent increase at 6 h and thereafter)	stimulation of the ESR (CHOP, GRP78, caspase-4 cleavage) [6]	CHOP expression in tumor tissue ([4]; U87MG xenograft, 1 mg/kg BZM and 7.5 mg/kg DMC individually or in combination, 50 h)	CHOP protein expression in tumor tissue ([4]; U87 xenograft, animals fed drug for 50 h)
Cc1ccc(-c2cc(C(F)(F)F)nn2-c2ccc(S(N)(=O)=O)cc2)cc1 [celecoxib, 4-[5-(4-methylphenyl)-3-(trifluoromethyl)-1H-pyrazol-1-yl]benzenesulfonamide]	able to induce cell death/apoptosis	noticeable lower compared with DMC	~50	positive for CHOP	–	–	–	–	–	–	–	–
Cc1ccc(C)c(-c2cc(C(F)(F)F)nn2-c2ccc(S(N)(=O)=O)cc2)c1 [DMC, 4-[5-(2,5-dimethylphenyl)-3-(trifluoromethyl)-1H-pyrazol-1-yl]benzenesulfonamide]	–	pronounced induction of CHOP	< 40	positive for CHOP	greatly reduced survival	potently induced	strong induction of GRP78 and CHOP	~24	substantially elevated	potently stimulated the ESR	did not cause much elevated CHOP expression	large increase in CHOP protein expression
